# Test results as given in ChEMBL document CHEMBL3792286, “A convenient and efficient approach to polyfluorosalicylic acids and their tuberculostatic activity” (Bioorg Med Chem Lett, 2016).
# What was measured:
# Mycobacterium avium = assay type: functional; conditions: 240 h
# Mycolicibacter terrae = assay type: functional; conditions: 240 h
# [1] = test system: Mycobacterium tuberculosis; test: microbe, parasite or virus in culture; conditions: H37Rv, 240 h
# Description: Tuberculostatic activity against Mycobacterium tuberculosis H37Rv assessed as induction of penetration size stunting incubated for 10 days by vertical diffusion method
# [2] = Toxicity in healthy mouse administered as single peroral dose measured after 14 days; assay type: organism-based; conditions: in vivo, po
# [3] = test system: Mycobacterium tuberculosis; test: Antimicrobial activity against Mycobacterium tuberculosis; assay type: functional
SMILES,MIC (Mycobacterium avium) [µg/mL],MIC (Mycolicibacter terrae) [µg/mL],MIC [1] [µg/mL],LD50 at 336 h [2] [mg/kg],MIC [3] [µg/mL]
CC1COc2c(N3CCN(C)CC3)c(F)cc3c(=O)c(C(=O)O)cn1c23 (stereo not given) [OFLOXACIN],0.1,0.1,0.1,,
O=C(O)c1cc(F)c(F)c(F)c1O,,,6.5,> 100,
O=C(O)c1ccc(F)c(F)c1O,1.5,1.5,1.5,> 150,
O=C(O)c1c(O)c(F)c(F)c(F)c1F,0.7,0.7,0.7,100,
Nc1ccc(C(=O)O)c(O)c1 [AMINOSALICYLIC ACID],32,,0.3,4000,> 250
O=C(O)c1cc(F)c(F)cc1O,0.7,0.7,0.7,> 300,
NNC(=O)c1ccncc1 [ISONIAZID],0.1,0.1,0.1,100,
